From patent US12203089B2, “Plants having increased tolerance to herbicides” (BASF SE, priority 2015, dated 2025)

Assays:
Format in all cases: in vivo
[1] = system: Brassica napus expressing BnaAnng01240D (SEQ ID 20) variant S1041L; assay: 6-well plate injury test, T1 seeds on vermiculite; details: 7 days after treatment
Protocol: Transgenic Brassica napus plants are assayed for improved tolerance to azine herbicides like e. g. 6-cyclopentyl-N4-(2,3,4,5,6-pentafluorophenyl)-1,3,5-triazine-2,4-diamine in 6-well plates. Therefore, 5-6 T1 seeds are sown on vermiculite and watered with half-strength murashige skoog nutrient solution, pH 5.8 (Murashige and Skoog (1962) Physiologia Plantarum 15: 473-497). Compounds are dissolved in dimethylsulfoxid (DMSO) and added to the medium (final DMSO concentration 0.1%). Multi well plates are incubated in a growth chamber at 22° C., 75% relative humidity and 110 μmol Phot*m^−2*s^−1 with 14: 10 h light: dark photoperiod. Growth inhibition is evaluated seven to ten days after seeding in comparison to wild type plants. Plant injury is rated on a scale of 0% to 100%, 0% being no injury and 100% being complete death.

Brassica napus wildtype = assay: Greenhouse herbicide tolerance, post emergent; details: 7 days after treatment
Protocol: (§1) T1/T2 transgenic plants of Brassica napus containing cellulose synthase sequences or mutated gene variants thereof are tested for improved tolerance to herbicides in greenhouse studies with azine herbicides. For the pre-emergence treatment, the herbicides are applied directly after sowing by means of finely distributing nozzles. The containers are irrigated gently to promote germination and growth and subsequently covered with transparent plastic hoods until the plants have rooted. This cover causes uniform germination of the test plants, unless this has been impaired by the herbicides. For post emergence treatment, the test plants are first grown to a height of 3 to 15 cm, depending on the plant habit, and only then treated with the herbicides. For this purpose, the test plants are either sown directly, and grown in the same containers or they are first grown separately and transplanted into the test containers a few days prior to treatment.
(§2) Herbicide injury evaluations are taken at 1, 2 and 3 weeks after treatment. Plant biomass reduction is rated on a scale of 0% to 100%, 0% being no reduction of biomass compared to untreated control, and 100% being complete absence of biomass.

[2] = system: Brassica napus expressing BnaA03g55200D (SEQ ID 12) variant S1041L; assay: Greenhouse herbicide tolerance, post emergent; details: 7 days after treatment
Protocol: as §1, §2

[3] = system: Brassica napus expressing BnaA01g04600D (SEQ ID 21) variant G1012R; assay: Greenhouse herbicide tolerance, post emergent; details: 7 days after treatment
Protocol: as §1, §2

[4] = system: Brassica napus expressing BnaA03g55200D (SEQ ID 12) variant S1038F; assay: Greenhouse herbicide tolerance, post emergent; details: 7 days after treatment
Protocol: as §1, §2

[5] = system: Brassica napus expressing BnaA03g52020D (SEQ ID 15) variant G1015R; assay: Greenhouse herbicide tolerance, post emergent; details: 7 days after treatment
Protocol: as §1, §2

[6] = system: Brassica napus expressing BnaAnng01240D (SEQ ID 20) variant S1038F; assay: Greenhouse herbicide tolerance, post emergent; details: 7 days after treatment
Protocol: as §1, §2

[7] = system: Arabidopsis thaliana expressing AtCesA1_P1010L_G1013R (SEQ ID 1); assay: 48-well plate growth inhibition, T2 seeds, tolerance factor; details: based on IC50 values of growth inhibition, seven to ten days after seeding
Protocol: (§3) Transgenic Arabidopsis thaliana plants (T2) are assayed for improved tolerance to azine herbicides like e. g. 6-cyclopentyl-N4-(2,3,4,5,6-pentafluorophenyl)-1,3,5-triazine-2,4-diamine in 48-well plates. Therefore, T2 seeds are surface sterilized by stirring for 5 min in ethanol+water (70+30 by volume), rinsing one time with ethanol+water (70+30 by volume) and two times with sterile, deionized water. The seeds are resuspended in 0.1% agar dissolved in water (w/v) Four to five seeds per well are plated on solid nutrient medium consisting of half-strength murashige skoog nutrient solution, pH 5.8 (Murashige and Skoog (1962) Physiologia Plantarum 15: 473-497). Compounds are dissolved in dimethylsulfoxid (DMSO) and added to the medium prior solidification (final DMSO concentration 0.1%). Multi well plates are incubated in a growth chamber at 22° C., 75% relative humidity and 110 μmol Phot*m^−2*s^−1 with 14:10 h light:dark photoperiod. Growth inhibition is evaluated seven to ten days after seeding in comparison to wild type plants. Tolerance factors are calculated based on IC50 values of growth inhibition of transformed versus non-transformed Arabidopsis plants.

[8] = system: Arabidopsis thaliana expressing AtCesA3_S983F_S1037F (SEQ ID 3); assay: as above; details: based on IC50 values of growth inhibition, seven to ten days after seeding
Protocol: as §3

[9] = system: Arabidopsis thaliana expressing AtCesA1_wt (SEQ ID 1); assay: as above; details: based on IC50 values of growth inhibition, seven to ten days after seeding
Protocol: as §3

[10] = system: Arabidopsis thaliana expressing AtCesA3_S983F_S1040L (SEQ ID 3); assay: as above; details: based on IC50 values of growth inhibition, seven to ten days after seeding
Protocol: as §3

[11] = system: Arabidopsis thaliana expressing AtCesA1_G1009D_G1013R (SEQ ID 1); assay: as above; details: based on IC50 values of growth inhibition, seven to ten days after seeding
Protocol: as §3

[12] = system: Arabidopsis thaliana expressing AtCesA3_wt (SEQ ID 3); assay: as above; details: based on IC50 values of growth inhibition, seven to ten days after seeding
Protocol: as §3

[13] = BnaAnng01240D S1041L event 1, 5*10^-8M
[14] = BnaAnng01240D S1041L event 1, 10^-6M
[15] = BnaAnng01240D S1041L event 1, 10^-7M
[16] = BnaAnng01240D S1041L event 1, 10^-8M

Nc1nc(Nc2nc(F)c(F)c(Cl)c2F)nc(C2(F)CCCC2)n1 [N2-(4-chloro-3,5,6-trifluoro-2-pyridyl)-6-(1-fluorocyclopentyl)-1,3,5-triazine-2,4-diamine]
average phytotox value ([1]; BnaAnng01240D S1041L event 1, 5*10-7): 90% | average phytotox value [1, 13]: 0% | average phytotox value [1, 14]: 90% | average phytotox value [1, 15]: 10% | average phytotox value [1, 16]: 0% | average phytotox value (Brassica napus wildtype; 7.8 g/ha): 42% | average phytotox value (Brassica napus wildtype; 15.6 g/ha): 56% | average phytotox value (Brassica napus wildtype; 31.25 g/ha): 70% | average phytotox value (Brassica napus wildtype; 62.5 g/ha): 83% | average phytotox value ([2]; 7.8 g/ha): 24% | average phytotox value ([2]; 15.6 g/ha): 53% | average phytotox value ([2]; 31.25 g/ha): 62% | average phytotox value ([2]; 62.5 g/ha): 76% | average phytotox value ([3]; 7.8 g/ha): 34% | average phytotox value ([3]; 15.6 g/ha): 61% | average phytotox value ([3]; 31.25 g/ha): 65% | average phytotox value ([3]; 62.5 g/ha): 72% | average phytotox value ([4]; 1st listed line, 7.8 g/ha): 8% | average phytotox value ([4]; 1st listed line, 15.6 g/ha): 6% | average phytotox value ([4]; 1st listed line, 31.25 g/ha): 47% | average phytotox value ([4]; 1st listed line, 62.5 g/ha): 54% | average phytotox value ([4]; 2nd listed line, 7.8 g/ha): 21% | average phytotox value ([4]; 2nd listed line, 15.6 g/ha): 51% | average phytotox value ([4]; 2nd listed line, 31.25 g/ha): 47% | average phytotox value ([4]; 2nd listed line, 62.5 g/ha): 68% | average phytotox value ([5]; 1st listed line, 7.8 g/ha): 34% | average phytotox value ([5]; 1st listed line, 15.6 g/ha): 43% | average phytotox value ([5]; 1st listed line, 31.25 g/ha): 50% | average phytotox value ([5]; 1st listed line, 62.5 g/ha): 73% | average phytotox value ([5]; 2nd listed line, 7.8 g/ha): 16% | average phytotox value ([5]; 2nd listed line, 15.6 g/ha): 41% | average phytotox value ([5]; 2nd listed line, 31.25 g/ha): 62% | average phytotox value ([5]; 2nd listed line, 62.5 g/ha): 72% | average phytotox value ([6]; 1st listed line, 7.8 g/ha): 7% | average phytotox value ([6]; 1st listed line, 15.6 g/ha): 17% | average phytotox value ([6]; 1st listed line, 31.25 g/ha): 47% | average phytotox value ([6]; 1st listed line, 62.5 g/ha): 54% | average phytotox value ([6]; 2nd listed line, 7.8 g/ha): 10% | average phytotox value ([6]; 2nd listed line, 15.6 g/ha): 33% | average phytotox value ([6]; 2nd listed line, 31.25 g/ha): 68% | average phytotox value ([6]; 2nd listed line, 62.5 g/ha): 71% | Relative tolerance rate as compared to non-transgenic Arabidopsis plants (non-transgenic = 1.0) [7]: 1 | Relative tolerance rate as compared to non-transgenic Arabidopsis plants (non-transgenic = 1.0) [8]: 5 | Relative tolerance rate as compared to non-transgenic Arabidopsis plants (non-transgenic = 1.0) [9]: 2 | Relative tolerance rate as compared to non-transgenic Arabidopsis plants (non-transgenic = 1.0) [10]: 4 | Relative tolerance rate as compared to non-transgenic Arabidopsis plants (non-transgenic = 1.0) [11]: 1 | Relative tolerance rate as compared to non-transgenic Arabidopsis plants (non-transgenic = 1.0) [12]: 1

Nc1nc(Nc2c(F)c(F)c(F)c(F)c2F)nc(C2CCCC2)n1 [6-cyclopentyl-N4-(2,3,4,5,6-pentafluorophenyl)-1,3,5-triazine-2,4-diamine]
average phytotox value [1, 13]: 55% | average phytotox value [1, 14]: 80% | average phytotox value [1, 15]: 70% | average phytotox value [1, 16]: 0% | average phytotox value ([1]; BnaAnng01240D S1041L event 1, 10^-9M): 0% | average phytotox value ([1]; BnaAnng01240D S1041L event 2, 5*10^-8M): 65% | average phytotox value ([1]; BnaAnng01240D S1041L event 2, 10^-6M): 80% | average phytotox value ([1]; BnaAnng01240D S1041L event 2, 10^-7M): 80% | average phytotox value ([1]; BnaAnng01240D S1041L event 2, 10^-8M): 0% | average phytotox value ([1]; BnaAnng01240D S1041L event 2, 10^-9M): 0% | average phytotox value (Brassica napus wildtype; 3.9 g/ha): 23% | average phytotox value (Brassica napus wildtype; 7.8 g/ha): 34% | average phytotox value (Brassica napus wildtype; 15.6 g/ha): 59% | average phytotox value (Brassica napus wildtype; 31.25 g/ha): 73% | average phytotox value ([2]; 3.9 g/ha): 15% | average phytotox value ([2]; 7.8 g/ha): 27% | average phytotox value ([2]; 15.6 g/ha): 42% | average phytotox value ([2]; 31.25 g/ha): 51% | average phytotox value ([3]; 3.9 g/ha): 17% | average phytotox value ([3]; 7.8 g/ha): 35% | average phytotox value ([3]; 15.6 g/ha): 35% | average phytotox value ([3]; 31.25 g/ha): 60% | average phytotox value ([4]; 1st listed line, 3.9 g/ha): 23% | average phytotox value ([4]; 1st listed line, 7.8 g/ha): 25% | average phytotox value ([4]; 1st listed line, 15.6 g/ha): 29% | average phytotox value ([4]; 1st listed line, 31.25 g/ha): 34% | average phytotox value ([4]; 2nd listed line, 3.9 g/ha): 7% | average phytotox value ([4]; 2nd listed line, 7.8 g/ha): 19% | average phytotox value ([4]; 2nd listed line, 15.6 g/ha): 20% | average phytotox value ([4]; 2nd listed line, 31.25 g/ha): 44% | average phytotox value ([5]; 1st listed line, 3.9 g/ha): 18% | average phytotox value ([5]; 1st listed line, 7.8 g/ha): 43% | average phytotox value ([5]; 1st listed line, 15.6 g/ha): 41% | average phytotox value ([5]; 1st listed line, 31.25 g/ha): 53% | average phytotox value ([5]; 2nd listed line, 3.9 g/ha): 37% | average phytotox value ([5]; 2nd listed line, 7.8 g/ha): 61% | average phytotox value ([5]; 2nd listed line, 15.6 g/ha): 45% | average phytotox value ([5]; 2nd listed line, 31.25 g/ha): 67% | average phytotox value ([6]; 1st listed line, 3.9 g/ha): 1% | average phytotox value ([6]; 1st listed line, 7.8 g/ha): 5% | average phytotox value ([6]; 1st listed line, 15.6 g/ha): 8% | average phytotox value ([6]; 1st listed line, 31.25 g/ha): 27% | average phytotox value ([6]; 2nd listed line, 3.9 g/ha): 1% | average phytotox value ([6]; 2nd listed line, 7.8 g/ha): 10% | average phytotox value ([6]; 2nd listed line, 15.6 g/ha): 41% | average phytotox value ([6]; 2nd listed line, 31.25 g/ha): 50% | Relative tolerance rate as compared to non-transgenic Arabidopsis plants (non-transgenic = 1.0) [7]: 30 | Relative tolerance rate as compared to non-transgenic Arabidopsis plants (non-transgenic = 1.0) [8]: 10 | Relative tolerance rate as compared to non-transgenic Arabidopsis plants (non-transgenic = 1.0) [9]: 1 | Relative tolerance rate as compared to non-transgenic Arabidopsis plants (non-transgenic = 1.0) [10]: 10 | Relative tolerance rate as compared to non-transgenic Arabidopsis plants (non-transgenic = 1.0) [11]: 1 | Relative tolerance rate as compared to non-transgenic Arabidopsis plants (non-transgenic = 1.0) [12]: 1
